Experimental findings from patent US9675070B2 (BAYER CROPSCIENCE AG, priority 2013, dated 2017) are described below.

Molecules are shown by their SMILES.

Data set [1] can be described thus: log P determination by HPLC on reversed-phase column (C18), EEC Directive 79/831 Annex V.A8. The class given is physicochemical. The following applies: method a): Agilent 1100 LC, Zorbax Eclipse Plus C18, acetonitrile/water with formic acid, gradient 10-95% in 4.25 min, 55° C. Here is the method:
Agilent 1100 LC system; 50*4.6 Zorbax Eclipse Plus C18 1.8 micron; mobile phase A: acetonitrile (0.1% formic acid); mobile phase B: water (0.09% formic acid); linear gradient from 10% acetonitrile to 95% acetonitrile in 4.25 min, then 95% acetonitrile for a further 1.25 min; oven temperature 55° C.; flow rate: 2.0 ml/min. Mass detection is carried out via an Agilend MSD system.
^a)Unless indicated otherwise, the following method was used to determine the log P values and masses: The determination of the given log P values was carried out in accordance with EEC Directive 79/831 Annex V.A8 by HPLC (High Performance Liquid Chromatography) on a reversed-phase column (C18). Agilent 1100 LC system; 50*4.6 Zorbax Eclipse Plus C18 1.8 micron; mobile phase A: acetonitrile (0.1% formic acid); mobile phase B: water (0.09% formic acid); linear gradient from 10% acetonitrile to 95% acetonitrile in 4.25 min, then 95% acetonitrile for a further 1.25 min; oven temperature 55° C.; flow rate: 2.0 ml/min. Mass detection is carried out via an Agilend MSD system. ^b)Note for the alternative method for determining log P values and masses: The stated log P values were determined in accordance with EEC Directive 79/831 Annex V.A8 by HPLC (High Performance Liquid Chromatography) using a reversed-phase column (C18). Waters ACQUITY UPLC-MS system; 2.1*50 mm Zorbax Eclipse Plus C18 1.8 μm 600 bar; injection volume: 0.5 ul about 1000 ppm; mobile phase A: acetonitrile (0.1% formic acid); mobile phase B: water (0.085% formic acid); linear gradient from 10% acetonitrile to 95% acetonitrile in 1.5 min, then 95% acetonitrile for a further 0.5 min; oven temperature 60° C.; flow rate: 1.0 ml/min. Mass detection is carried out via a Waters SQD system.

For data set [2], the system named is Tick nymphs (Amblyomma hebraeum). As to the kind of experiment: Amblyomma hebaraeum test (AMBYHE), tick nymph immersion. The class given is in vivo. The following applies: application rate 100 ppm; immersion one minute; after 42 days. Here is the method:
Amblyomma hebaraeum Test (AMBYHE) Solvent: dimethyl sulphoxide To produce a suitable preparation of active compound, 10 mg of active compound are mixed with 0.5 ml of dimethyl sulphoxide, and the concentrate is diluted with water to the desired concentration. Tick nymphs (Amblyomma hebraeum) are placed into perforated plastic beakers and immersed in the desired concentration for one minute. The ticks are transferred on filter paper into a Petri dish and stored in a climate-controlled cabinet. After 42 days, the kill in % is determined. 100% means that all of the ticks have been killed; 0% means that none of the ticks have been killed.

Data set [3] concerns cattle ticks (Boophilus microplus) Parkhurst strain, SP-resistant. Description: Boophilus microplus dip test (BOOPMI Dip). It is filed as in vivo. To be noted: application rate 100 ppm, assessed after 7 days. Here is the method:
Boophilus microplus—Dip Test (BOOPMI Dip)
Test animals: cattle ticks (Boophilus microplus) Parkhurst strain, SP-resistant
Solvent: dimethyl sulphoxide
10 mg of active compound are dissolved in 0.5 ml of dimethyl sulphoxide. To prepare a suitable formulation, the active compound solution is diluted with water to the concentration desired in each case.
This active compound preparation is pipetted into tubes. 8-10 adult engorged female cattle ticks (Boophilus microplus) are transferred into a further tube with holes. The tube is immersed into the active compound formulation, and all ticks are completely wetted. After the liquid has run out, the ticks are transferred on filter discs into plastic dishes and stored in a climate-controlled room.
The activity is assessed after 7 days by laying of fertile eggs. Eggs whose fertility is not visible from the outside are stored in a climate-controlled cabinet until the larvae hatch after about 42 days. An efficacy of 100% means that none of the ticks has laid any fertile eggs; 0% means that all eggs are fertile.

Data set [4] deals with engorged adult female cattle ticks (Boophilus microplus). Description: Boophilus microplus injection test (BOOPMI Inj). The class given is in vivo. The following applies: application rate 20 μg/animal; injection into abdomen; assessed after 7 days.
The subject of data set [5] is adult cat fleas (Ctenocephalides felis). Description: Ctenocephalides felis oral test (CTECFE). The class given is in vivo. The following applies: application rate 100 ppm in citrated cattle blood; after 2 days.
The subject of data set [6] is L1 larvae of the Australian sheep blowfly (Lucilia cuprina). Description: Lucilia cuprina test (LUCICU). It is filed as in vivo. The following applies: application rate 100 ppm; minced horsemeat; after 2 days.
Data set [7] deals with adult houseflies (Musca domestica). As to the kind of experiment: Musca domestica test (MUSCDO). The class given is in vivo. To be noted: application rate 100 ppm; after 2 days.
Data set [8] relates to southern root-knot nematode (Meloidogyne incognita). Description: Meloidogyne incognita test (MELGIN). The class given is in vivo. The following applies: application rate 20 ppm; lettuce; after 14 days. Here is the method:
Meloidogyne incognita Test (MELGIN) Solvent: 125.0 parts by weight of acetone To prepare a suitable active compound preparation, 1 part by weight of active compound is mixed with the stated amount of solvent and the concentrate is diluted with water to the desired concentration. Vessels are filled with sand, active compound solution, an egg/larvae suspension of the southern root-knot nematode (Meloidogyne incognita) and lettuce seeds. The lettuce seeds germinate and the plants develop. On the roots, galls are formed. After 14 days, the nematicidal efficacy in % is determined by the formation of galls. 100% means that no galls have been found; 0% means that the number of galls on the treated plants corresponds to the untreated control.

In data set [9] the test system is larvae of the mustard beetle (Phaedon cochleariae). As to the kind of experiment: Phaedon cochleariae spray test (PHAECO). The class given is in vivo. To be noted: application rate 100 g/ha; Chinese cabbage leaf discs; after 7 days.
Data set [10] concerns caterpillars of the armyworm (Spodoptera frugiperda). Description: Spodoptera frugiperda spray test (SPODFR). The following applies: application rate 100 g/ha; maize leaf discs; after 7 days. It is filed as in vivo.
In data set [11] the test system is greenhouse red spider mite (Tetranychus urticae), OP-resistant. As to the kind of experiment: Tetranychus urticae spray test, OP-resistant (TETRUR). It is filed as in vivo. To be noted: application rate 100 g/ha; bean leaf discs; after 6 days.

As for `CCC(=O)NCc1cccc(-c2cnn(-c3c(C(F)(F)F)c(C(F)(F)C(F)(F)F)nn3C)c2)c1` [Ic-1, N-{3-[2′-methyl-5′-(pentafluoroethyl)-4′-(trifluoromethyl)-2′H-1,3′-bipyrazol-4-yl]benzyl}propanamide], the chromatographic logP – broadly, a lipophilicity value derived from retention on a column – in data set [1] was determined as 3.59. Besides, the kill in % in data set [2], in [5], in [6] and in [7] was 100% throughout. The “efficacy (no laying of fertile eggs)” value in data set [3] and in data set [4] was 100% each time. Moreover, the “nematicidal efficacy in % (formation of galls)” value in [8] came to 90%. The values for the efficacy in % in data set [9], in [10] and in data set [11] were 100%, 100% and 90%, respectively.
